Measurements: PubChem BioAssay (NCI)
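Results reflect a 48-hour exposure of cells in 96-well plates to compound at five concentrations. At the TGI there is no net growth.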

Tests used:
Test in all cases: inhibition of tumour cell growth, NCI panel, 48 h
A498 renal = system: A498 renal
HCT-15 colon = system: HCT-15 colon
HCC-2998 colon = system: HCC-2998 colon
NCI/ADR-RES ovarian = system: NCI/ADR-RES ovarian
M14 melanoma = system: M14 melanoma
HL-60(TB) leukemia = system: HL-60(TB) leukemia
786-0 renal = system: 786-0 renal
OVCAR-3 ovarian = system: OVCAR-3 ovarian
RPMI-8226 leukemia = system: RPMI-8226 leukemia
HOP-62 NSCLC = system: HOP-62 NSCLC
EKVX NSCLC = system: EKVX NSCLC
HOP-92 NSCLC = system: HOP-92 NSCLC
NCI-H522 lung = system: NCI-H522 lung
CAKI-1 renal = system: CAKI-1 renal
SN12C renal = system: SN12C renal
A549 NSCLC = system: A549 NSCLC
SW-620 colon = system: SW-620 colon
OVCAR-8 ovarian = system: OVCAR-8 ovarian
SK-MEL-28 melanoma = system: SK-MEL-28 melanoma
SF-539 CNS = system: SF-539 CNS
UO-31 renal = system: UO-31 renal
SF-295 CNS = system: SF-295 CNS
UACC-62 melanoma = system: UACC-62 melanoma
BT-549 breast = system: BT-549 breast
SK-MEL-5 melanoma = system: SK-MEL-5 melanoma
RXF 393 renal = system: RXF 393 renal
SNB-19 CNS = system: SNB-19 CNS
MDA-MB-231 breast = system: MDA-MB-231 breast
CCRF-CEM leukemia = system: CCRF-CEM leukemia
MOLT-4 leukemia = system: MOLT-4 leukemia
OVCAR-4 ovarian = system: OVCAR-4 ovarian
DU-145 prostate = system: DU-145 prostate
NCI-H23 lung = system: NCI-H23 lung
U251 CNS = system: U251 CNS
T-47D breast = system: T-47D breast
SF-268 CNS = system: SF-268 CNS
K-562 leukemia = system: K-562 leukemia
LOX IMVI melanoma = system: LOX IMVI melanoma
MDA-MB-435 = system: MDA-MB-435
UACC-257 melanoma = system: UACC-257 melanoma
MDA-N = system: MDA-N
SK-MEL-2 melanoma = system: SK-MEL-2 melanoma
MALME-3M melanoma = system: MALME-3M melanoma
PC-3 prostate = system: PC-3 prostate
MCF7 breast = system: MCF7 breast
HCT-116 colon = system: HCT-116 colon
HS 578T breast = system: HS 578T breast
COLO 205 colon = system: COLO 205 colon
IGROV1 ovarian = system: IGROV1 ovarian
HT29 colon = system: HT29 colon
OVCAR-5 ovarian = system: OVCAR-5 ovarian
ACHN renal = system: ACHN renal
TK-10 renal = system: TK-10 renal
KM12 colon = system: KM12 colon
NCI-H460 lung = system: NCI-H460 lung
SNB-75 CNS = system: SNB-75 CNS
SR leukemia = system: SR leukemia

Compound: CC1=NN(C(=O)CC(=O)Nc2ccccc2)C(=O)C1N=Nc1ccc(C(=O)O)cc1 (configuration not stated)
- TGI (A498 renal): > 100 µM
- TGI (HCT-15 colon): > 100 µM
- TGI (HCC-2998 colon): > 100 µM
- TGI (NCI/ADR-RES ovarian): > 100 µM
- TGI (M14 melanoma): > 100 µM
- TGI (HL-60(TB) leukemia): > 100 µM
- TGI (786-0 renal): > 100 µM
- TGI (OVCAR-3 ovarian): > 100 µM
- TGI (RPMI-8226 leukemia): > 100 µM
- TGI (HOP-62 NSCLC): > 100 µM
- TGI (EKVX NSCLC): > 100 µM
- TGI (HOP-92 NSCLC): 87.1 µM
- TGI (NCI-H522 lung): > 100 µM
- TGI (CAKI-1 renal): > 100 µM
- TGI (SN12C renal): > 100 µM
- TGI (A549 NSCLC): > 100 µM
- TGI (SW-620 colon): > 100 µM
- TGI (OVCAR-8 ovarian): > 100 µM
- TGI (SK-MEL-28 melanoma): > 100 µM
- TGI (SF-539 CNS): > 100 µM
- TGI (UO-31 renal): > 100 µM
- TGI (SF-295 CNS): > 100 µM
- TGI (UACC-62 melanoma): > 100 µM
- TGI (BT-549 breast): > 100 µM
- TGI (SK-MEL-5 melanoma): > 100 µM
- TGI (RXF 393 renal): > 100 µM
- TGI (SNB-19 CNS): > 100 µM
- TGI (MDA-MB-231 breast): > 100 µM
- TGI (CCRF-CEM leukemia): > 100 µM
- TGI (MOLT-4 leukemia): > 100 µM
- TGI (OVCAR-4 ovarian): > 100 µM
- TGI (DU-145 prostate): > 100 µM
- TGI (NCI-H23 lung): > 100 µM
- TGI (U251 CNS): > 100 µM
- TGI (T-47D breast): > 100 µM
- TGI (SF-268 CNS): > 100 µM
- TGI (K-562 leukemia): > 100 µM
- TGI (LOX IMVI melanoma): > 100 µM
- TGI (MDA-MB-435): > 100 µM
- TGI (UACC-257 melanoma): > 100 µM
- TGI (MDA-N): > 100 µM
- TGI (SK-MEL-2 melanoma): > 100 µM
- TGI (MALME-3M melanoma): > 100 µM
- TGI (PC-3 prostate): > 100 µM
- TGI (MCF7 breast): > 100 µM
- TGI (HCT-116 colon): > 100 µM
- TGI (HS 578T breast): > 100 µM
- TGI (COLO 205 colon): > 100 µM
- TGI (IGROV1 ovarian): > 100 µM
- TGI (HT29 colon): > 100 µM
- TGI (OVCAR-5 ovarian): > 100 µM
- TGI (ACHN renal): > 100 µM
- TGI (TK-10 renal): > 100 µM
- TGI (KM12 colon): > 100 µM
- TGI (NCI-H460 lung): > 100 µM
- TGI (SNB-75 CNS): > 100 µM
- TGI (SR leukemia): > 100 µM
